Tests used:
[1] = system: Hydrolyzed Bovine Dry Collagen protein medium; experiment: Cross-linking test: skin (crust) formation on protein medium after spraying
Description: Tests were performed in order to obtain a skin (crust) on the protein medium by using a cross-linking agent. Time, temperature and skim formation were monitored. Tests were performed at 40° F.—both medium and solutions were cooled to test temperature. Test medium was prepared by mixing a solution containing 85% D.I. water and 15% Hydrolyzed Bovine Dry Collagen (purchased from Milligan & Higgens). Approx 4 oz of the preparation was put into Petri dishes, placed in a refrigerator for thirty minutes before reacclimatizing at room temperature, ready for testing. Subsequently, the various test solutions were poured into 4 oz bottles with spray nozzles and 10 ml of solution was sprayed onto the medium in the petri dishes from a distance of 6 inches, timed and viewed at 15 minute intervals and the contents of the petri dish was then scored for skin formation. The time and extent of skin formation was noted and transposed to graphs (see FIGS. 1-4).
A second series of tests were run using Egg Albumin Powder (purchased from J.T. Baker) as the protein medium, prepared by mixing 85% D.I. water and 15% Egg Albumin Powder. Both test produced identical results.
Lab testing was performed to assess cross-linking ability of various compositions. […]

[2] = system: digital dermatitis lesions; experiment: Actual field application on digital dermatitis lesions (scab formation); assay type: in vivo, cow; conditions: glutaraldehyde at less than 5%, applied on digital dermatitis lesions

O=CC=O [glyoxal]
cross-linking effects, maximum extent of skin formation ([1]; glyoxal alone, scored from 0 to 10, FIG. 3): 2.5

O=CCCCC=O [glutaraldehyde]
cross-linking of test samples (in words) ([1]; glutaraldehyde reduced to less than 5%, FIG. 2): significantly less cross-linking
facilitating adequate scab formation in an acceptable time span [2]: ineffective

From US20150366819A1, “COMPOSITIONS AND METHODS FOR TREATING HOOF DISEASES” (AGROCHEM, INC., priority 2008, published 2015)
